This passage reports IC50 results from patent US20240092799A1, “MNK INHIBITORS” (Hepagene Therapeutics (HK) Limited, priority 2020, published 2024).

Where a name gives a salt, the structure may show the parent alone.

For one assay, the target named is MNK2 (Homo sapiens (Human), UniProt Q9HBH9). In words: MNK Biochemical Enzymatic Assay (ADP-Glo), MNK2 binding assay. The method in brief: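 Human MNK1 or MNK2 was preincubated with a 10-point, 1:3 serial dilution of compound for 15 min at 25 °C. Substrate was then added and the reaction ran 60 min at 25 °C. ADP formed was read by ADP-Glo luminescence, and IC50 came from non-linear regression.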
(ADP-Glo first removes unused ATP, then detects ADP through luciferase.)

The next assay relates to TMD-8 cell p-IF4E. In words: p-eIF4E Signaling Cellular Assay (CisBio HTRF) in TMD-8 cells. The assay is classed as cell-based. Conditions: 40 min treatment. On the procedure:
p-eIF4E Signaling Cellular Assay. Phosphorylated eIF4E is assayed using the CisBio p-Eif4E HTRF assay kit. Reagents and equipment used in the assay are listed below, followed by the protocol.
Cell medium: RPMI 1640+10% FBS+1*PS, TMD-8 were cultured as recommended and assayed in exponential growth phase. • a) Plate 30 μL of cells in 384 white assay plate in appropriate medium and proper cell density (20 k/well) based on Optimization at 37° C. under 5% CO2 atmosphere • b) Dispense 90 nL of compounds diluted in DMSO and treat for 40 min at 37° C. under 5% CO2 atmosphere • c) Remove cell supernatant by flicking the plate • d) Add 16 μL of supplemented lysis buffer (1×) for 30 minutes at RT under shaking • e) Add 4 μL of premixed antibody solutions prepared in the detection buffer. Cover the plate with a plate sealer. Incubate 0/N at RT • f) Read the fluorescence emission at 665 nm and 620 nm on Envision • g) Data analysis • (1) Ratio […] signal is calculated for each well • (2) % Inhibition is calculated as follow:
% inhibition=100−(Signalcmpd-SignalAve_PC)/(SignalAve_VC-SignalAve_PC)×100. • (3) Calculate IC50 and Plot effect-dose curve of cmpds:
Calculate IC50 by fitting % Inhibition values and log of compound concentrations to nonlinear regression (dose response−variable slope) with Graphpad 8.0.
Y=Bottom+(Top−Bottom)/(1+10^((Log IC50−X)*Hill Slope)) • X: log of Inhibitor concentration; Y: % Inhibition.
A general note: TR-FRET usually uses a lanthanide donor and a delayed reading to cut background.

Chain of MNK2 (Q9HBH9 whole entry): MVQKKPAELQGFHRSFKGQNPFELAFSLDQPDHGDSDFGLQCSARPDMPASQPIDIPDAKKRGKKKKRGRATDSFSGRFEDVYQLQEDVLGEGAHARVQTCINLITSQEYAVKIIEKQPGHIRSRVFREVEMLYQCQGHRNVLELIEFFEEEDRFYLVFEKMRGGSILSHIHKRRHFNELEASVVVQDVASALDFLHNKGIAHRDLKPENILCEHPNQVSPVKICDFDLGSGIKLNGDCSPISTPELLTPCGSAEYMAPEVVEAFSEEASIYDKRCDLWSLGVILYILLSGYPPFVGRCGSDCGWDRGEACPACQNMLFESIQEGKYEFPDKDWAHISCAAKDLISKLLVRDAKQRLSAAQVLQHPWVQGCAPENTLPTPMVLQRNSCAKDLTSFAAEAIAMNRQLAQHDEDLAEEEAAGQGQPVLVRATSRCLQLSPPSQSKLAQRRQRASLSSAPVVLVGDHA

By IC50 is commonly meant the concentration that inhibits the measured activity by half. Low readings indicate higher potency, high ones lower potency. On to `O=C1NC2(CCCCC2)c2nc(Nc3cc(Nc4ccccn4)ncn3)sc21` [Compound XXVIII-B, 2′-((6-(pyridin-2-ylamino)pyrimidin-4-yl)amino)spiro[cyclohexane-1,4′-pyrrolo[3,4-d]thiazol]-6′(5′H)-one], for which the IC50 lay in the range of 0.1 to 10 nM at MNK2 and 10 to 100 nM in the assay on TMD-8 cell p-IF4E (Homo sapiens, TMD8, 40 min).
For `Cc1cc(Nc2cc(Nc3ccccn3)ncn2)[n+]([O-])c2c1C(=O)NC21CCCCC1` [Compound XXIX-D, 4′-methyl-5′-oxo-2′-((6-(pyridin-2-ylamino)pyrimidin-4-yl)amino)-5′,6′-dihydrospiro[cyclohexane-1,7′-pyrrolo[3,4-b]pyridine] 1′-oxide], in that order: 0.1 to 10 nM and 0.1 to 10 nM.
For `Cc1cc(Nc2cc(Nc3cccc(CO)n3)ncn2)[n+]([O-])c2c1C(=O)NC21CCCCC1` [Compound XXIX-AU, 2′-((6-((6-(hydroxymethyl)pyridin-2-yl)amino)pyrimidin-4-yl)amino)-4′-methyl-5′-oxo-5′,6′-dihydrospiro[cyclohexane-1,7′-pyrrolo[3,4-b]pyridine] 1′-oxide formate salt], in that order: 0.1 to 10 nM and 0.1 to 10 nM.
For `O=C1NC2(CCCCC2)c2c1sc(Nc1cc(N[C@H]3CCOC3)ncn1)c2Cl` [Compound XXI-A, (S)-3′-chloro-2′-((6-((tetrahydrofuran-3-yl)amino)pyrimidin-4-yl)amino)spiro[cyclohexane-1,4′-thieno[2,3-c]pyrrol]-6′(5′H)-one], in that order: 0.1 to 10 nM and 10 to 100 nM.
On to `O=C1NC2(CCCCC2)c2cc(Nc3cc(N[C@H]4CCOC4)ncn3)sc21` [Compound XXIV-C, (S)-2′-((6-((tetrahydrofuran-3-yl)amino)pyrimidin-4-yl)amino)spiro[cyclohexane-1,4′-thieno[2,3-c]pyrrol]-6′(5′H)-one], for which the IC50 lay in the range of 0.1 to 10 nM on MNK2 and 10 to 100 nM in the assay on TMD-8 cell p-IF4E (Homo sapiens, TMD8, 40 min).
For `Cc1cc(Nc2cc(Nc3ccc(N4CCN(CCO)CC4)cn3)ncn2)[n+]([O-])c2c1C(=O)NC21CCCCC1` [Compound XXIX-AAP, 2′-((6-((5-(4-(2-hydroxyethyl)piperazin-1-yl)pyridin-2-yl)amino)pyrimidin-4-yl)amino)-4′-methyl-5′-oxo-5′,6′-dihydrospiro[cyclohexane-1,7′-pyrrolo[3,4-b]pyridine]1′-oxide formate salt], in that order: 0.1 to 10 nM and 0.1 to 10 nM.
The corresponding values for `O=C1NC2(CCCCC2)c2cc(Nc3ncnc4c3CCN4)sc21` [Compound XXXI, 2′-((6,7-dihydro-5H-pyrrolo[2,3-d]pyrimidin-4-yl)amino)spiro[cyclohexane-1,4′-thieno[2,3-c]pyrrol]-6′(5′H)-one] are 0.1 to 10 nM and 100 to 1000 nM.
As to `Cc1ccc(Nc2cc(Nc3cc(C)c4c([n+]3[O-])C3(CCCCC3)NC4=O)ncn2)nc1` [Compound XXIX-AAA, 4′-methyl-2′-((6-((5-methylpyridin-2-yl)amino)pyrimidin-4-yl)amino)-5′-oxo-5′,6′-dihydrospiro[cyclohexane-1,7′-pyrrolo[3,4-b]pyridine] 1′-oxide], the IC50 at MNK2 was in the range of 0.1 to 10 nM; in the assay with TMD-8 cell p-IF4E (Homo sapiens, TMD8, 40 min) it was 0.1 to 10 nM.
On to `Cc1cc(Nc2cc(Nc3ccc(N4CCNCC4)cn3)ncn2)[n+]([O-])c2c1C(=O)NC21CCCCC1` [Compound XXIX-AAL, 4′-methyl-5′-oxo-2′-[(6-{[5-(piperazin-1-yl)pyridin-2-yl]amino}pyrimidin-4-yl)amino]-6′H-spiro[cyclohexane-1,7′-pyrrolo[3,4-b]pyridin]-1′-ium-1′-olate], for which the IC50 fell in the range of 0.1 to 10 nM on MNK2 and 0.1 to 10 nM in the assay on TMD-8 cell p-IF4E (Homo sapiens, TMD8, 40 min).
On to `Cc1cc(Nc2cc(Nc3ccn(C)n3)ncn2)[n+]([O-])c2c1C(=O)NC21CCCCC1` [Compound XXIX-K, 4′-methyl-2′-((6-((1-methyl-1H-pyrazol-3-yl)amino)pyrimidin-4-yl)amino)-5′-oxo-5′,6′-dihydrospiro[cyclohexane-1,7′-pyrrolo[3,4-b]pyridine] 1′-oxide], for which the IC50 on MNK2 was in the range of 0.1 to 10 nM; in the assay with TMD-8 cell p-IF4E (Homo sapiens, TMD8, 40 min), 0.1 to 10 nM.
With `Cc1cccc(Nc2cc(Nc3cc(C)c4c([n+]3[O-])C3(CCCCC3)NC4=O)ncn2)n1` [Compound XXIX-AL, 4′-methyl-2′-((6-((6-methylpyridin-2-yl)amino)pyrimidin-4-yl)amino)-5′-oxo-5′,6′-dihydrospiro[cyclohexane-1,7′-pyrrolo[3,4-b]pyridine] 1′-oxide], the IC50 at MNK2 was in the range of 0.1 to 10 nM; in the assay on TMD-8 cell p-IF4E (Homo sapiens, TMD8, 40 min), 10 to 100 nM.
The corresponding values for `O=C1NC2(CCCCC2)c2cc(Nc3cc(NC(=O)C4CCOC4)ncn3)sc21` (stereo not shown) [Compound XXIV-I, N-(6-((6′-oxo-5′,6′-dihydrospiro[cyclohexane-1,4′-thieno[2,3-c]pyrrol]-2′-yl)amino)pyrimidin-4-yl)tetrahydrofuran-3-carboxamide] are 0.1 to 10 nM and 100 to 1000 nM.
Take `O=C1NC2(CCCCC2)c2cc(Nc3ncnc4[nH]c(C5CC5)cc34)sc21` [Compound XXXI-A, 2′-((6-cyclopropyl-7H-pyrrolo[2,3-d]pyrimidin-4-yl)amino)spiro[cyclohexane-1,4′-thieno[2,3-c]pyrrol]-6′(5′H)-one]: the IC50 lay within 0.1 to 10 nM on MNK2 and 0.1 to 10 nM in the assay with TMD-8 cell p-IF4E (Homo sapiens, TMD8, 40 min).
Take `Cc1cc(Nc2cc(Nc3ccn(C(F)(F)F)n3)ncn2)[n+]([O-])c2c1C(=O)NC21CCCCC1` [Compound XXIX-AF, 4′-methyl-5′-oxo-2′-[(6-{[1-(trifluoromethyl)pyrazol-3-yl]amino}pyrimidin-4-yl)amino]-6′H-spiro[cyclohexane-1,7′-pyrrolo[3,4-b]pyridin]-1′-ium-1′-olate]: the IC50 at MNK2 was 0.1 to 10 nM; in the assay with TMD-8 cell p-IF4E (Homo sapiens, TMD8, 40 min) it was 0.1 to 10 nM.
On to `Cc1cc(Nc2cc(Nc3ncn(C)n3)ncn2)[n+]([O-])c2c1C(=O)NC21CCCCC1` [Compound XXIX-AD, 4′-methyl-2′-((6-((1-methyl-Ill-1,2,4-triazol-3-yl)amino)pyrimidin-4-yl)amino)-5′-oxo-5′,6′-dihydrospiro[cyclohexane-1,7′-pyrrolo[3,4-b]pyridine] 1′-oxide], for which the IC50 fell in the range of 0.1 to 10 nM on MNK2 and 10 to 100 nM with TMD-8 cell p-IF4E (Homo sapiens, TMD8, 40 min).
For `O=C1NC2(CCCCC2)c2cc(Nc3cc(NCCO)ncn3)sc21` [Compound XXIII-J, 2′-((6-((2-Hydroxyethyl)amino)pyrimidin-4-yl)amino)spiro[cyclohexane-1,4′-thieno[2,3-c]pyrrol]-6′(5′H)-one], in that order: 0.1 to 10 nM and 100 to 1000 nM.
Regarding `Cc1cc(Nc2cc(N[C@H]3C[C@@](C)(O)C3)ncn2)[n+]([O-])c2c1C(=O)NC21CCCCC1` [Compound XXIX-AAC, 4′-methyl-5′-oxo-2′-[(6-{[trans-3-hydroxy-3-methylcyclobutyl]amino}pyrimidin-4-yl)amino]-6′H-spiro[cyclohexane-1,7′-pyrrolo[3,4-b]pyridin]-1′-ium-1′-olate], the figures for the IC50 at MNK2 and in the assay on TMD-8 cell p-IF4E were 0.1 to 10 nM and 10 to 100 nM, respectively.
Take `CN1CCN(c2ccc(Nc3cc(Nc4cc5c(s4)C(=O)NC54CCCCC4)ncn3)nc2)CC1` [Compound XXIII-T, 2′-((6-((5-(4-methylpiperazin-1-yl)pyridin-2-yl)amino)pyrimidin-4-yl)amino)spiro[cyclohexane-1,4′-thieno[2,3-c]pyrrol]-6′(5′H)-one]: the IC50 at MNK2 is 0.1 to 10 nM; in the assay with TMD-8 cell p-IF4E (Homo sapiens, TMD8, 40 min) it was 10 to 100 nM.
For `O=C1NC2(CCCCC2)c2cc(Nc3cc(NC4CCOC4)ncn3)sc21` (stereo not shown) [Compound XXIII-Y, 2′-((6-((tetrahydrofuran-3-yl)amino)pyrimidin-4-yl)amino)spiro[cyclohexane-1,4′-thieno[2,3-c]pyrrol]-6′(5′H)-one], in that order: 0.1 to 10 nM and 10 to 100 nM.
For `O=C1NC2(CCCCC2)c2cc(Nc3ncnc4[nH]ccc34)sc21` [Compound XVII-A, 2′-((7H-pyrrolo[2,3-d]pyrimidin-4-yl)amino)spiro[cyclohexane-1,4′-thieno[2,3-c]pyrrol]-6′(5′H)-one], in that order: 0.1 to 10 nM and 10 to 100 nM.
For `Cc1ccnc(Nc2cc(Nc3cc(C)c4c([n+]3[O-])C3(CCCCC3)NC4=O)ncn2)c1` [Compound XXIX-AAI, 4′-methyl-2′-((6-((4-methylpyridin-2-yl)amino)pyrimidin-4-yl)amino)-5′-oxo-5′,6′-dihydrospiro[cyclohexane-1,7′-pyrrolo[3,4-b]pyridine] 1′-oxide], in that order: 0.1 to 10 nM and 0.1 to 10 nM.
For `O=C1NC2(CCCCC2)c2cc(Nc3cc(Nc4cc[nH]n4)ncn3)sc21` [Compound XXIII-U, 2′-((6-((1H-pyrazol-3-yl)amino)pyrimidin-4-yl)amino)spiro[cyclohexane-1,4′-thieno[2,3-c]pyrrol]-6′(5′H)-one], the IC50 at MNK2 lay within 0.1 to 10 nM; with TMD-8 cell p-IF4E (Homo sapiens, TMD8, 40 min) it was 10 to 100 nM.
For `O=C1NC2(CCCCC2)c2cc(Nc3ncnc4[nH]cnc34)sc21` [Compound XVII, 2′-((9H-Purin-6-yl)amino)spiro[cyclohexane-1,4′-thieno[2,3-c]pyrrol]-6′(5′H)-one], in that order: 0.1 to 10 nM and 100 to 1000 nM.
